Experiments:
Candida albicans [1] = experiment: Fungicidal activity against Candida albicans; assay type: functional
Escherichia coli [2] = experiment: Bactericidal activity against Escherichia coli; assay type: functional
Bacillus subtilis [3] = experiment: Antibacterial activity against Bacillus subtilis assessed as growth inhibition after 24 hr by tube dilution method; assay type: functional
Aspergillus niger [4] = experiment: Ratio of MFC to MIC for Aspergillus niger; assay type: functional
MCF7 = experiment: Cytotoxicity against Homo sapiens (human) MCF7 cells assessed as growth inhibition after 72 hr by MTT assay; assay type: functional, cell-based
Staphylococcus aureus [5] = experiment: Antibacterial activity against Staphylococcus aureus assessed as growth inhibition after 24 hr by tube dilution method; assay type: functional
Bacillus subtilis [6] = experiment: Ratio of MBC to MIC for Bacillus subtilis; assay type: functional
Escherichia coli [7] = experiment: Antibacterial activity against Escherichia coli assessed as growth inhibition after 24 hr by tube dilution method; assay type: functional
Aspergillus niger [8] = experiment: Fungicidal activity against Aspergillus niger; assay type: functional
Candida albicans [9] = experiment: Ratio of MFC to MIC for Candida albicans; assay type: functional
Aspergillus niger [10] = experiment: Antifungal activity against Aspergillus niger assessed as growth inhibition after 7 days by tube dilution method; assay type: functional
Staphylococcus aureus [11] = experiment: Bactericidal activity against Staphylococcus aureus; assay type: functional
Bacillus subtilis [12] = experiment: Bactericidal activity against Bacillus subtilis; assay type: functional
Escherichia coli [13] = experiment: Ratio of MBC to MIC for Escherichia coli; assay type: functional
Staphylococcus aureus [14] = experiment: Ratio of MBC to MIC for Staphylococcus aureus; assay type: functional
HCT-116 = experiment: Cytotoxicity against Homo sapiens (human) HCT116 cells assessed as growth inhibition after 72 hr by MTT assay; assay type: functional, cell-based
Candida albicans [15] = experiment: Antifungal activity against Candida albicans assessed as growth inhibition after 48 hr by tube dilution method; assay type: functional

Row | Structure (SMILES) | MFC (Candida albicans [1]) [uM/ml] | MBC (Escherichia coli [2]) [uM/ml] | -logMIC (Bacillus subtilis [3]) | Ratio (Aspergillus niger [4]) | IC50 (MCF7) [uM/ml] | -logMIC (Staphylococcus aureus [5]) | Ratio (Bacillus subtilis [6]) | -logMIC (Escherichia coli [7]) | MFC (Aspergillus niger [8]) [uM/ml] | Ratio (Candida albicans [9]) | -logMIC (Aspergillus niger [10]) | MBC (Staphylococcus aureus [11]) [uM/ml] | MBC (Bacillus subtilis [12]) [uM/ml] | Ratio (Escherichia coli [13]) | Ratio (Staphylococcus aureus [14]) | IC50 (HCT-116) [uM/ml] | -logMIC (Candida albicans [15])
1 | O=C(Nc1ccccc1)c1ccccc1/N=N\c1c[nH]c2ccccc12 | >0.15 | >0.15 | 1.74 | 3 | 0.0882 | 1.13 | 3 | 1.74 | 0.04 | 3 | 1.44 | >0.15 | >0.15 | 3 | 3 | 0.2353 | 1.44
2 | O=C(Nc1cccc(Cl)c1)c1ccccc1/N=N\c1c[nH]c2ccccc12 | >0.13 | >0.13 | 1.48 | 3 | 0.1067 | 1.18 | 3 | 1.78 | 0.03 | 3 | 1.48 | >0.13 | >0.13 | 3 | 3 | 0.2933 | 1.48
3 | O=C(Nc1ccc(Cl)cc1)c1ccccc1/N=N\c1c[nH]c2ccccc12 | >0.13 | >0.13 | 1.48 | 3 | 0.1067 | 1.18 | 3 | 1.48 | 0.03 | 3 | 1.48 | >0.13 | >0.13 | 3 | 3 | 0.3467 | 1.48
4 | CCn1cc(C(=O)O)c(=O)c2cc(F)c(N3CCNCC3)cc21 [NORFLOXACIN] | – | 0.019 | 2.61 | – | – | 2.61 | 3 | 2.61 | – | – | – | 0.019 | 0.019 | 3 | 3 | – | –
5 | Cc1cccc(NC(=O)c2ccccc2/N=N\c2c[nH]c3ccccc23)c1 | >0.14 | >0.14 | 1.75 | 3 | 0.1271 | 1.45 | 3 | 1.75 | 0.04 | 3 | 1.45 | >0.14 | >0.14 | 3 | 3 | 0.1695 | 1.45
6 | Cc1ccc(NC(=O)c2ccccc2/N=N\c2c[nH]c3ccccc23)cc1 | >0.14 | >0.14 | 1.45 | 3 | 0.0791 | 1.15 | 3 | 1.45 | 0.04 | 3 | 1.45 | >0.14 | >0.14 | 3 | 3 | 0.452 | 1.45
7 | OC(Cn1cncn1)(Cn1cncn1)c1ccc(F)cc1F [FLUCONAZOLE] | 0.04 | – | – | 3 | – | – | – | – | 0.04 | 3 | 2.64 | – | – | – | – | – | 2.64
8 | Cc1cccc(NC(=O)c2ccccc2/N=N\c2c[nH]c3ccccc23)c1C | >0.14 | >0.14 | 1.47 | 3 | 0.1087 | 1.17 | 3 | 1.77 | 0.03 | 3 | 1.47 | >0.14 | >0.14 | 3 | 3 | 0.3533 | 1.47

— ChEMBL document CHEMBL3045122, “Synthesis, in vitro antimicrobial, antiproliferative, and QSAR studies of N-(substituted phenyl)-2/4-(1H-indol-3-ylazo)-benzamides” (Med Chem Res, 2013)
